Patent US20250340564A1, “COMPOSITIONS USEFUL FOR MODULATING SPLICING” (SKYHAWK THERAPEUTICS, INC., priority 2021, published 2025)

Assays:
[1] = test system: total ATXN3 protein levels in SK-N-MC cells; test: ATXN3 Total Protein Assay (MSD); type: cell-based; conditions: Homo sapiens, 48 hours incubation
Experimental: Human neuroblastoma SK-N-MC cells were seeded at 10,000 cells/well in 384 well plates one day prior to compound treatment. The concentrations of compounds were tested at appropriate doses ranging from 30 μM to 0.6 nM. After incubation for 48 hours, the cells were lysed with 25 μL of lysis buffer containing protease inhibitors, and total ATXN3 protein levels were assessed by Mesoscale Discovery (MSD) assay developed with one pair of anti-ATXN3 antibodies. The capture and detect antibodies were raised in mouse and rabbit respectively. Anti-rabbit MSD-ST antibody was used for secondary antibody.
ATXN3 recombinant protein was used for standards. The readouts were captured with 35 μL of MSD read buffer and multi-array 384-well high binding plates.
(§1) Compounds were tested as outlined in Examples 2 and 3 above and the results are shown below in Table 5.

[2] = test system: ATXN3 transcripts containing exon 4 (E4E5) in SK-N-MC cells; test: ATXN3 Quantitative Splicing Assay (qPCR, E4E5 transcripts containing exon 4); type: cell-based; conditions: Homo sapiens, 24 h treatment, qPCR primers/probe E4E5
Experimental: Human neuroblastoma SK-N-MC cells were plated in 384-well plates at 20,000 cells/well. Twenty-four hours after plating, cells were treated with compounds for 24 h at appropriate concentrations ranging from 30 μM to 0.6 nM (0.3% DMSO). Treated cells were lysed in 15 μL of lysis buffer, and cDNA was synthesized using the Fast Advanced Cells-to-Ct kit. Two μL of each cDNA was used in qPCR reactions to confirm the exon 4 skipped transcripts of ATXN3. A second set of primers/probe E4E5 was used to detect the transcripts containing exon 4. The third set of primers/probe E8E9 was used to detect total gene level of ATXN3. The qPCR reactions were prepared in 384-well plates in 10 μL volume, using TaqMan™ Fast Advanced Master Mix with primers and probes shown in the table below. Reactions were run in a Quant Studio 6 qPCR instrument with default settings.
The primers and probes are listed below in Table 4.
as §1

| IC50 [1] [µM] | IC50 [2] [µM] | Compound |
| --- | --- | --- |
| 10 to 40 | 10 to 40 | c1cc(CNc2cnnc3ccsc23)ccn1 [Compound 33, N-[(pyridin-4-yl)methyl]thieno[3,2-c]pyridazin-4-amine] |
| 10 to 40 | 10 to 40 | Cc1csc2c(NCc3ccncn3)cnnc12 [Compound 34, 7-methyl-N-[(pyrimidin-4-yl)methyl]thieno[3,2-c]pyridazin-4-amine] |
| 0.501 to 5 | 5 to 10 | Cc1c(C[C@@H](N)CCO)sc2c(NCc3ccccc3)cnnc12 [Compound 42, (3S)-3-amino-4-[4-(benzylamino)-7-methylthieno[3,2-c]pyridazin-6-yl]butan-1-ol] |
| 10 to 40 | 10 to 40 | Cc1c(C[C@@H](N)CO)sc2c(NCc3ccccc3F)cnnc12 [Compound 7, (2R)-2-amino-3-(4-{[(2-fluorophenyl)methyl]amino}-7-methylthieno[3,2-c]pyridazin-6-yl)propan-1-ol] |
| 10 to 40 | 10 to 40 | Cc1csc2c(NCc3ccncc3F)cnnc12 [Compound 35, N-[(3-fluoropyridin-4-yl)methyl]-7-methylthieno[3,2-c]pyridazin-4-amine] |
| 0.501 to 5 | 0.501 to 5 | Cc1c(C[C@@H](N)CO)sc2c(NCc3ccccc3)cnnc12 [Compound 39, (2R)-2-amino-3-[4-(benzylamino)-7-methylthieno[3,2-c]pyridazin-6-yl]propan-1-ol] |
| 10 to 40 | 10 to 40 | Clc1csc2c(NCc3ccncc3)cnnc12 [Compound 38, 7-chloro-N-[(pyridin-4-yl)methyl]thieno[3,2-c]pyridazin-4-amine] |
| 10 to 40 | 0.101 to 0.5 | Brc1csc2c(NCc3ccncc3)cnnc12 [Compound 41, 7-bromo-N-[(pyridin-4-yl)methyl]thieno[3,2-c]pyridazin-4-amine] |
| 10 to 40 | 10 to 40 | Cc1csc2c(NCc3ccccc3F)cnnc12 [Compound 36, N-[(2-fluorophenyl)methyl]-7-methylthieno[3,2-c]pyridazin-4-amine] |
| 10 to 40 | 5 to 10 | Cc1c(C[C@@H](N)CO)sc2c(NCc3ccncc3F)cnnc12 [Compound 5, (2R)-2-amino-3-(4-{[(3-fluoropyridin-4-yl)methyl]amino}-7-methylthieno[3,2-c]pyridazin-6-yl)propan-1-ol] |
| 10 to 40 | 10 to 40 | Cc1c(C[C@@H](N)CCO)sc2c(NCc3ccncc3)cnnc12 [Compound 11, (3S)-3-amino-4-(7-methyl-4-{[(pyridin-4-yl)methyl]amino}thieno[3,2-c]pyridazin-6-yl)butan-1-ol] |
| 10 to 40 | 5 to 10 | Cc1c(C[C@@H](N)CO)sc2c(NCc3ccncc3)cnnc12 [Compound 3, (2R)-2-amino-3-(7-methyl-4-{[(pyridin-4-yl)methyl]amino}thieno[3,2-c]pyridazin-6-yl)propan-1-ol] |
| 10 to 40 | 10 to 40 | Cc1c(C[C@@H](N)CO)sc2c(NCc3ccncn3)cnnc12 [Compound 23, (2R)-2-amino-3-(7-methyl-4-{[(pyrimidin-4-yl)methyl]amino}thieno[3,2-c]pyridazin-6-yl)propan-1-ol] |
| 10 to 40 | 10 to 40 | CC[C@H](N)Cc1sc2c(NCc3ccncc3)cnnc2c1C [Compound 10, 6-[(2S)-2-aminobutyl]-7-methyl-N-[(pyridin-4-yl)methyl]thieno[3,2-c]pyridazin-4-amine] |

| Compound | IC50 [1] [µM] | IC50 [2] [µM] |
| --- | --- | --- |
| C[C@H](N)Cc1sc2c(NCc3ccncc3)cnnc2c1Br [Compound 20, 6-[(2S)-2-aminopropyl]-7-bromo-N-[(pyridin-4-yl)methyl]thieno[3,2-c]pyridazin-4-amine] | 10 to 40 | 5 to 10 |
| Cc1c(C[C@H](C)N)sc2c(NCc3ccncn3)cnnc12 [Compound 22, 6-[(2S)-2-aminopropyl]-7-methyl-N-[(pyrimidin-4-yl)methyl]thieno[3,2-c]pyridazin-4-amine] | 10 to 40 | 10 to 40 |
| C[C@H](N)Cc1cc2nnc(Br)c(NCc3ccccc3)c2s1 [Compound 40, 6-[(2S)-2-aminopropyl]-N-benzyl-3-bromothieno[3,2-c]pyridazin-4-amine] | 10 to 40 | 10 to 40 |
| Cc1c(C[C@H](C)N)sc2c(NCc3ccncc3F)cnnc12 [Compound 4, 6-[(2S)-2-aminopropyl]-N-[(3-fluoropyridin-4-yl)methyl]-7-methylthieno[3,2-c]pyridazin-4-amine] | 10 to 40 | 5 to 10 |
| Cc1c(C[C@H](C)N)sc2c(NCc3ccccc3)cnnc12 [Compound 37, 6-[(2S)-2-aminopropyl]-N-benzyl-7-methylthieno[3,2-c]pyridazin-4-amine] | 0.501 to 5 | 0.501 to 5 |
| Cc1c(C[C@H](C)N)sc2c(NCc3ccncc3)cnnc12 [Compound 1, 6-[(2S)-2-aminopropyl]-7-methyl-N-[(pyridin-4-yl)methyl]thieno[3,2-c]pyridazin-4-amine] | 5 to 10 | 5 to 10 |
| Cc1c(C[C@H](C)N)sc2c(NCc3ccccc3F)cnnc12 [Compound 6, 6-[(2S)-2-aminopropyl]-N-[(2-fluorophenyl)methyl]-7-methylthieno[3,2-c]pyridazin-4-amine] | 5 to 10 | 0.501 to 5 |
| C[C@H](N)Cc1sc2c(NCc3ccncc3)cnnc2c1Cl [Compound 8, 6-[(2S)-2-aminopropyl]-7-chloro-N-[(pyridin-4-yl)methyl]thieno[3,2-c]pyridazin-4-amine] | 10 to 40 | 10 to 40 |
